Source: PubChem BioAssay (NCI)
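GI50 = concentration required for 50% inhibition of growth. TGI is the concentration that stops growth completely.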

What was measured:
Assay in all cases: growth of human tumour cells (NCI), 384-well format
COLO 205 colon = test system: COLO 205 colon
MOLT-4 leukemia = test system: MOLT-4 leukemia
SW-620 colon = test system: SW-620 colon
OVCAR-3 ovarian = test system: OVCAR-3 ovarian
BT-549 breast = test system: BT-549 breast
OVCAR-5 ovarian = test system: OVCAR-5 ovarian
HS 578T breast = test system: HS 578T breast
UO-31 renal = test system: UO-31 renal
OVCAR-4 ovarian = test system: OVCAR-4 ovarian
HCT-15 colon = test system: HCT-15 colon
HCC-2998 colon = test system: HCC-2998 colon
RPMI-8226 leukemia = test system: RPMI-8226 leukemia
NCI-H522 lung = test system: NCI-H522 lung

`C=CC(=O)Nc1cc(C)ccc1Nc1nc(Nc2cc(OC)ncc2C)ncc1C(F)(F)F` showed a GI50 (COLO 205 colon) of 75.3 nM, a TGI (COLO 205 colon) of 1120 nM and a GI50 (MOLT-4 leukemia) of 879 nM. The TGI (MOLT-4 leukemia) was 2150 nM, the GI50 (SW-620 colon) was 405 nM and the TGI (SW-620 colon) was 1680 nM. For the same compound, the GI50 (OVCAR-3 ovarian) was 447 nM, the TGI (OVCAR-3 ovarian) was 3030 nM and the GI50 (BT-549 breast) was 300 nM. For the same compound, the TGI (BT-549 breast) was 1020 nM, the GI50 (OVCAR-5 ovarian) was 279 nM and the TGI (OVCAR-5 ovarian) was 1500 nM. For the same compound, the GI50 (HS 578T breast) was 429 nM, the TGI (HS 578T breast) was 1850 nM and the GI50 (UO-31 renal) was 394 nM. For the same compound, the TGI (UO-31 renal) was 2880 nM, the GI50 (OVCAR-4 ovarian) was 394 nM and the TGI (OVCAR-4 ovarian) was 7500 nM. For the same compound, the GI50 (HCT-15 colon) was 857 nM, the TGI (HCT-15 colon) was 9300 nM and the GI50 (HCC-2998 colon) was 123 nM. It also gave a TGI (HCC-2998 colon) of 376 nM, a GI50 (RPMI-8226 leukemia) of 232 nM and a TGI (RPMI-8226 leukemia) of 1170 nM. It also gave a GI50 (NCI-H522 lung) of 310 nM and a TGI (NCI-H522 lung) of 1480 nM.
